According to the supplement of paper PMC10307832:

Assays:
Assay in all cases: relative viability (nuclei count vs DMSO), 5 days (fraction); higher = more cells survive
Alisertib + Linsitinib = compound: COc1cc(Nc2ncc3c(n2)-c2ccc(Cl)cc2C(c2c(F)cccc2OC)=NC3)ccc1C(=O)O [Alisertib] + C[C@]1(O)C[C@@H](c2nc(-c3ccc4ccc(-c5ccccc5)nc4c3)c3c(N)nccn32)C1 [Linsitinib] (partner 1 µM)
In short: (§1)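 After 5 days of treatment, lung cancer cells in 1536-well plates were fixed and stained in a single step (final 0.05% Triton X-100, 1% formaldehyde, 1 ug/ml Hoechst) and their nuclei counted on 4× images. Treatment had been applied by pin tool the day after seeding as one drug alone or as a fixed anchor-drug dose with five library-drug doses (not always all listed) in √10 steps. Relative viability is the nuclei count of treated wells divided by that of vehicle wells, and values are medians of duplicate plates.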

Alisertib + Pemetrexed = compound: COc1cc(Nc2ncc3c(n2)-c2ccc(Cl)cc2C(c2c(F)cccc2OC)=NC3)ccc1C(=O)O [Alisertib] + Nc1nc2[nH]cc(CCc3ccc(C(=O)N[C@@H](CCC(=O)O)C(=O)O)cc3)c2c(=O)[nH]1 [Pemetrexed] (partner 0.2 µM)
In short: as §1

Alisertib + Vorinostat = compound: COc1cc(Nc2ncc3c(n2)-c2ccc(Cl)cc2C(c2c(F)cccc2OC)=NC3)ccc1C(=O)O [Alisertib] + O=C(CCCCCCC(=O)Nc1ccccc1)NO [Vorinostat] (partner 1 µM)
In short: as §1

Alisertib + Olaparib = compound: COc1cc(Nc2ncc3c(n2)-c2ccc(Cl)cc2C(c2c(F)cccc2OC)=NC3)ccc1C(=O)O [Alisertib] + O=C(c1cc(Cc2n[nH]c(=O)c3ccccc23)ccc1F)N1CCN(C(=O)C2CC2)CC1 [Olaparib] (partner 8 µM)
In short: as §1

Cell Line | relative viability (Alisertib + Linsitinib; first compound 0.005 µM) | relative viability (Alisertib + Linsitinib; first compound 0.01581 µM) | relative viability (Alisertib + Linsitinib; first compound 0.05 µM) | relative viability (Alisertib + Linsitinib; first compound 0.1581 µM) | relative viability (Alisertib + Linsitinib; first compound 0.5 µM) | relative viability (Alisertib + Pemetrexed; first compound 0.005 µM) | relative viability (Alisertib + Pemetrexed; first compound 0.01581 µM) | relative viability (Alisertib + Pemetrexed; first compound 0.05 µM) | relative viability (Alisertib + Pemetrexed; first compound 0.1581 µM) | relative viability (Alisertib + Pemetrexed; first compound 0.5 µM) | relative viability (Alisertib + Vorinostat; first compound 0.005 µM) | relative viability (Alisertib + Vorinostat; first compound 0.01581 µM) | relative viability (Alisertib + Vorinostat; first compound 0.05 µM) | relative viability (Alisertib + Vorinostat; first compound 0.1581 µM) | relative viability (Alisertib + Vorinostat; first compound 0.5 µM) | relative viability (Alisertib + Olaparib; first compound 0.005 µM) | relative viability (Alisertib + Olaparib; first compound 0.01581 µM) | relative viability (Alisertib + Olaparib; first compound 0.05 µM) | relative viability (Alisertib + Olaparib; first compound 0.1581 µM) | relative viability (Alisertib + Olaparib; first compound 0.5 µM)
201T | 0.99 | 1.07 | 1 | 0.745 | 0.348 | 0.314 | 0.299 | 0.358 | 0.335 | 0.274 | 0.927 | 0.881 | 0.913 | 0.414 | 0.333 | 0.823 | 0.803 | 0.711 | 0.361 | 0.33
A-427 | 1.07 | 0.986 | 0.257 | 0.202 | 0.184 | 0.818 | 0.5 | 0.266 | 0.265 | 0.251 | 0.603 | 0.41 | 0.313 | 0.27 | 0.262 | 0.65 | 0.563 | 0.204 | 0.177 | 0.227
ABC-1 | 0.661 | 0.707 | 0.584 | 0.416 | 0.204 |  |  |  |  |  | 0.993 | 0.753 | 0.46 | 0.249 | 0.332 | 0.534 | 0.708 | 0.677 | 0.555 | 0.432
BEN | 0.83 | 0.878 | 0.259 | 0.208 | 0.205 | 0.629 | 0.784 | 0.335 | 0.358 | 0.342 | 0.522 | 0.456 | 0.332 | 0.332 | 0.385 | 0.983 | 0.917 | 0.295 | 0.269 | 0.341
CAL-12T | 0.741 | 0.603 | 0.187 | 0.157 | 0.162 | 1.14 | 1.15 | 0.242 | 0.235 | 0.176 | 0.506 | 0.592 | 0.262 | 0.189 | 0.169 | 0.66 | 0.534 | 0.194 | 0.159 | 0.195
COR-L23 | 0.794 | 0.799 | 0.401 | 0.178 | 0.121 | 0.197 | 0.196 | 0.189 | 0.179 | 0.134 | 0.347 | 0.35 | 0.151 | 0.09 | 0.0909 | 0.304 | 0.298 | 0.183 | 0.137 | 0.101
Calu-6 | 0.733 | 0.763 | 0.295 | 0.129 | 0.162 |  |  |  |  |  |  |  |  |  |  | 0.545 | 0.385 | 0.237 | 0.207 | 0.13
ChaGo-K-1 |  |  |  |  |  | 0.238 | 0.281 | 0.238 | 0.189 | 0.169 | 0.653 | 0.643 | 0.24 | 0.207 | 0.161 | 0.355 | 0.339 | 0.174 | 0.17 | 0.154
EBC-1 | 0.678 | 0.731 | 0.211 | 0.179 | 0.147 |  |  |  |  |  |  |  |  |  |  | 0.609 | 0.478 | 0.195 | 0.216 | 0.132
IA-LM | 0.478 | 0.659 | 0.324 | 0.223 | 0.0931 |  |  |  |  |  | 0.986 | 0.87 | 0.564 | 0.189 | 0.0645 | 0.671 | 0.674 | 0.596 | 0.449 | 0.0913
NCI-H727 | 0.415 | 0.366 | 0.216 | 0.242 | 0.194 |  |  |  |  |  | 1.19 | 0.986 | 0.939 | 0.471 | 0.561 | 0.679 | 0.624 | 0.556 | 0.518 | 0.465
NCI-H1299 | 0.936 | 0.932 | 0.71 | 0.271 | 0.189 |  |  |  |  |  |  |  |  |  |  | 0.931 | 0.877 | 0.582 | 0.396 | 0.193
NCI-H1563 | 1.04 | 1.01 | 1.01 | 0.935 | 0.744 | 0.806 | 0.807 | 0.683 | 0.543 | 0.663 |  |  |  |  |  |  |  |  |  | 
NCI-H1648 |  |  |  |  |  |  | 0.658 | 0.752 | 0.27 | 0.276 |  | 0.22 | 0.315 | 0.235 | 0.236 |  | 0.711 | 0.293 | 0.242 | 0.267
NCI-H1650 |  |  |  |  |  | 0.402 | 0.362 | 0.256 | 0.223 | 0.189 | 0.57 | 0.488 | 0.388 | 0.176 | 0.185 | 0.813 | 0.61 | 0.16 | 0.163 | 0.204
NCI-H1703 | 0.65 | 0.626 | 0.563 | 0.177 | 0.164 |  |  |  |  |  |  |  |  |  |  | 0.534 | 0.387 | 0.198 | 0.153 | 0.141
NCI-H1792 | 0.546 | 0.372 | 0.177 | 0.076 | 0.0631 | 0.674 | 0.346 | 0.203 | 0.0756 | 0.0468 |  |  |  |  |  | 0.425 | 0.384 | 0.138 | 0.0583 | 0.0651
NCI-H2170 |  |  |  |  |  | 0.267 | 0.282 | 0.236 | 0.209 | 0.183 | 0.766 | 0.782 | 0.318 | 0.2 | 0.164 | 0.601 | 0.509 | 0.307 | 0.206 | 0.163
NCI-H2342 |  |  |  |  |  | 0.774 | 0.75 | 0.57 | 0.542 | 0.418 | 0.65 | 0.662 | 0.61 | 0.464 | 0.397 | 0.463 | 0.475 | 0.298 | 0.33 | 0.349
